Laboratory results: patent publication US20040024024A1, “Aromatic sulfone hydroxamates and their use as protease inhibitors” (priority 2001, published 2004)
Each block holds one compound with its values, some of them ahead of it.

Experiments:
Experiment in all cases: In vitro MMP inhibition, IC50 determination (fluorogenic substrate I)
Format in all cases: biochemical
Human recombinant MMP-2 = target: T1, Human recombinant MMP-2 (Homo sapiens, UniProt P08253)
T1 construct: made in house; host or cells: MMP-2-transfected p2AHT2 cells
T1 sequence (P08253 110-660): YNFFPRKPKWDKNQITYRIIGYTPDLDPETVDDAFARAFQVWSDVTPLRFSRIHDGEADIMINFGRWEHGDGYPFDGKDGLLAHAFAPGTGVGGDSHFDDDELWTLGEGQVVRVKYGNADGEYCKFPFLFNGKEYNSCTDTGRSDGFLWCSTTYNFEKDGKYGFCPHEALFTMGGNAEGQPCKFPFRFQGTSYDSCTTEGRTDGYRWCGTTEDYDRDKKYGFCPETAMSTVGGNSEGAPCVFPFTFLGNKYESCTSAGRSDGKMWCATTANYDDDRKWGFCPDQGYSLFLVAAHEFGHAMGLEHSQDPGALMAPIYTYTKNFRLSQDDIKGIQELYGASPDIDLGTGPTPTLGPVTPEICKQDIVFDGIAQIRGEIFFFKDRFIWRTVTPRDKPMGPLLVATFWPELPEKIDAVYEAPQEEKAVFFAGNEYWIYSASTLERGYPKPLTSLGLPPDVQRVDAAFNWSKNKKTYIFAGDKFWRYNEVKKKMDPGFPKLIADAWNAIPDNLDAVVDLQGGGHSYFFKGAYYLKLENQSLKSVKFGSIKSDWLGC
Method in brief: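 APMA- or trypsin-activated recombinant MMP-2 was incubated at room temperature with serial inhibitor dilutions in Tris buffer pH 7.5 (100 mM NaCl, 10 mM CaCl2, 0.05% Brij), with DMSO from 1% stocks, and 4 μM substrate I. Cleavage was read by fluorescence at 328/415 nm; IC50 was taken from the loss of fluorescence versus inhibitor concentration.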

Human recombinant MMP-13 = target: T2, Human recombinant MMP-13 (Homo sapiens, UniProt P45452)
T2 construct: made in house; host or cells: baculovirus / insect cells
Method in brief: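 Fluorescence at 415 nm (excitation 328 nm) reports Gly-Leu cleavage of 4 μM quenched methoxycoumarin peptide substrate I. Human recombinant MMP-13, activated by trypsin or APMA, was incubated at room temperature with varied inhibitor concentrations in pH 7.5 Tris/NaCl/CaCl2 buffer; IC50 derived from reduced fluorescence.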

Human recombinant MMP-14 = target: T3, Human recombinant MMP-14 (Homo sapiens, UniProt P50281)
T3 construct: The catalytic domain enzyme was expressed in E. coli inclusion bodies, solubilized in urea; made in house
Method in brief: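 Catalytic-domain MMP-14, expressed in E. coli and refolded, activated with APMA or trypsin; compounds incubated at room temperature with 4 μM fluorogenic substrate I (MCA-PLGL-Dpa-AR-NH2) in Tris/NaCl/CaCl2 buffer, pH 7.5. Fluorescence at ex 328/em 415 nm; IC50 from loss of fluorescence versus inhibitor concentration.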

Human recombinant MMP-9 = target: T4, Human recombinant MMP-9 (Homo sapiens, UniProt P14780)
T4 construct: made in house; host or cells: MMP-9-transfected HT1080 cells (spent media)
Method in brief: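 MMP-9 proenzyme purified from transfected HT1080 cell media, activated with APMA or trypsin. Compound dilutions in pH 7.5 Tris/NaCl/CaCl2 buffer with 0.05% polyoxyethylene 23 lauryl ether, incubated at room temperature with 4 μM MCA/Dpa substrate I. IC50 from fluorescence loss (ex 328, em 415 nm) versus inhibitor concentration.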

Human recombinant MMP-1 = target: T5, Human recombinant MMP-1 (Homo sapiens, UniProt P03956)
T5 construct: made in house; host or cells: MMP-1-transfected HT-1080 cells (spent media)
T5 sequence (P03956 100-469): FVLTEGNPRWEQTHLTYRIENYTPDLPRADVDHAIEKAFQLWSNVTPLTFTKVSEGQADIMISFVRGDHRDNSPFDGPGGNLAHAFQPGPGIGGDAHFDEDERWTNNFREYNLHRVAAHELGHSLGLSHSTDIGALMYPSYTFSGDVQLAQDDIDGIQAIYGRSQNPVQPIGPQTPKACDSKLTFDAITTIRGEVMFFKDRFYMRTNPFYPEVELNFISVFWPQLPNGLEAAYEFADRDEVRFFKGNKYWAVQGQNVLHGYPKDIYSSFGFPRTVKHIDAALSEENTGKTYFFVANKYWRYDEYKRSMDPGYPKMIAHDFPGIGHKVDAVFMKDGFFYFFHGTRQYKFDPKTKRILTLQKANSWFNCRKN
Method in brief: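 APMA- or trypsin-activated enzyme, purified from spent media of transfected HT-1080 cells, incubated at room temperature with 4 μM MCA-Pro-Leu-Gly-Leu-Dpa-Ala-Arg-NH2 and graded inhibitor in Tris buffer pH 7.5 (10 mM CaCl2, 0.05% Brij). Cleavage read by fluorescence (ex 328/em 415 nm); IC50 from fluorescence reduction versus inhibitor concentration.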

[1] = substrate (I) 4 μM, room temperature, values not in parenthesis
[2] = value outside parentheses (Ki in parenthesis)

T4 sequence (P14780 107-707 limits assumed): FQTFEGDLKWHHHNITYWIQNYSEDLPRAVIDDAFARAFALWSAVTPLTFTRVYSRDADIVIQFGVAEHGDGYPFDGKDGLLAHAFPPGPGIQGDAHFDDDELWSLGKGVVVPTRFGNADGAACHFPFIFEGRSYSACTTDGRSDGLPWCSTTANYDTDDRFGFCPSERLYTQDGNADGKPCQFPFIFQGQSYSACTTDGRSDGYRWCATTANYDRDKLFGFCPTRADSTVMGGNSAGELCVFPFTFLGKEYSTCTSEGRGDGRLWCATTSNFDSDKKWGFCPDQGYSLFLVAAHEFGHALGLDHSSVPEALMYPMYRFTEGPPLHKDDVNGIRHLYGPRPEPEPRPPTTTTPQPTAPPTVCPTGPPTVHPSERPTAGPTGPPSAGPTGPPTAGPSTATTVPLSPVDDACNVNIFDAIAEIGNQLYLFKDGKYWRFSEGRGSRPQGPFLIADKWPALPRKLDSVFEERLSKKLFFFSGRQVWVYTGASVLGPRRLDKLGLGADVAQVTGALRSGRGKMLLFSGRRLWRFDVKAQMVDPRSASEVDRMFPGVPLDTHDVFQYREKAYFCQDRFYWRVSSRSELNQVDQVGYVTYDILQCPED

Structure (SMILES): COCCN1CCC(C(=O)NO)(S(=O)(=O)c2ccc(OCCCc3cccc(-c4ccccc4)c3)cc2)CC1 [Example 44]
- IC50 (Human recombinant MMP-2; [1]): 133 nM
- IC50 (Human recombinant MMP-13; [1]): 1.4 nM
- IC50 (Human recombinant MMP-14; [1]): 4980 nM
- IC50 (Human recombinant MMP-9; [1]): 154 nM
- IC50 (Human recombinant MMP-1; [1]): > 10000 nM

Structure (SMILES): Cc1ccc(-c2nnc(CCCOc3ccc(S(=O)(=O)C4(C(=O)NO)CCOCC4)cc3)o2)cc1 [Example 259]
- IC50 (Human recombinant MMP-2; value outside parenthesis): 201 nM
- IC50 (Human recombinant MMP-13; value outside parenthesis): 0.7 nM
- IC50 (Human recombinant MMP-14; value outside parenthesis): > 10000 nM
- IC50 (Human recombinant MMP-9; value outside parenthesis): 1880 nM
- IC50 (Human recombinant MMP-1; value outside parenthesis): 7260 nM

Structure (SMILES): O=C(NO)C1(S(=O)(=O)c2ccc(OC3CCOCC3)cc2)CCOCC1 [Example 480]
- IC50 (Human recombinant MMP-2; [2]): 18 nM
- IC50 (Human recombinant MMP-13; [2]): 11 nM
- IC50 (Human recombinant MMP-14; [2]): 1400 nM
- IC50 (Human recombinant MMP-9; [2]): 60 nM
- IC50 (Human recombinant MMP-1; [2]): 4200 nM

Structure (SMILES): O=C(NO)C1(S(=O)(=O)c2ccc(OCCCSc3nc4ccccc4o3)cc2)CCOCC1 [Example 33, 4-[[4-[3-(2-benzoxazolylthio)propoxy]phenyl]sulfonyl]tetrahydro-N-N-hydroxy-2H-pyran-4-carboxamide]
- IC50 (Human recombinant MMP-2; [1]): 16 nM
- IC50 (Human recombinant MMP-13; [1]): 1 nM
- IC50 (Human recombinant MMP-14; [1]): 4940 nM
- IC50 (Human recombinant MMP-9; [1]): 7.9 nM
- IC50 (Human recombinant MMP-1; [1]): > 10000 nM

Structure (SMILES): O=C(NO)C1(S(=O)(=O)c2ccc(OCCCOCc3cccnc3)cc2)CCOCC1 [Example 520]
- IC50 (Human recombinant MMP-2; value outside parentheses): 54.2 nM
- IC50 (Human recombinant MMP-13; value outside parentheses): 0.62 nM
- IC50 (Human recombinant MMP-14; value outside parentheses): 4300 nM
- IC50 (Human recombinant MMP-9; value outside parentheses): 36.4 nM
- IC50 (Human recombinant MMP-1; value outside parentheses): > 10000 nM

Structure (SMILES): O=C1CN(c2cccc(OC(F)(F)F)c2)C(=O)N1CCCOc1ccc(S(=O)(=O)C2(C(=O)NO)CCOCC2)cc1 [Example 232]
- IC50 (Human recombinant MMP-2; value outside parenthesis): 74.2 nM
- IC50 (Human recombinant MMP-13; value outside parenthesis): 5.6 nM
- IC50 (Human recombinant MMP-14; value outside parenthesis): > 10000 nM
- IC50 (Human recombinant MMP-9; value outside parenthesis): 878 nM
- IC50 (Human recombinant MMP-1; value outside parenthesis): > 10000 nM

Structure (SMILES): O=C(NCCCOc1ccc(S(=O)(=O)C2(C(=O)NO)CCOCC2)cc1)c1cnc(Cl)c(Cl)c1 [Example 384]
- IC50 (Human recombinant MMP-2; [2]): 176 nM
- IC50 (Human recombinant MMP-13; [2]): 0.8 nM
- IC50 (Human recombinant MMP-14; [2]): > 10000 nM
- IC50 (Human recombinant MMP-9; [2]): 2630 nM
- IC50 (Human recombinant MMP-1; [2]): > 10000 nM

The remaining lines, values ahead:

- IC50 (Human recombinant MMP-2; value outside parenthesis): 3.6 nM
- IC50 (Human recombinant MMP-13; value outside parenthesis): 1.8 nM
- IC50 (Human recombinant MMP-14; value outside parenthesis): 1420 nM
- IC50 (Human recombinant MMP-9; value outside parenthesis): 11.2 nM
- IC50 (Human recombinant MMP-1; value outside parenthesis): 3870 nM
Structure (SMILES): CN(C)Cc1ccc(C(=O)CCCCOc2ccc(S(=O)(=O)C3(C(=O)NO)CCN(C4CC4)CC3)cc2)cc1 [Example 187]

- IC50 (Human recombinant MMP-2; [2]): 3 nM
- IC50 (Human recombinant MMP-13; [2]): 6 nM
- IC50 (Human recombinant MMP-14; [2]): 400 nM
- IC50 (Human recombinant MMP-9; [2]): 40 nM
- IC50 (Human recombinant MMP-1; [2]): > 10000 nM
Structure (SMILES): COC(C)CCOc1ccc(S(=O)(=O)C2(C(=O)NO)CCOCC2)cc1 (stereo not shown) [Example 472]

- IC50 (Human recombinant MMP-2; value outside parenthesis): 60.2 nM
- IC50 (Human recombinant MMP-13; value outside parenthesis): 1.3 nM
- IC50 (Human recombinant MMP-14; value outside parenthesis): > 10000 nM
- IC50 (Human recombinant MMP-9; value outside parenthesis): 944 nM
- IC50 (Human recombinant MMP-1; value outside parenthesis): > 10000 nM
Structure (SMILES): O=C(NO)C1(S(=O)(=O)c2ccc(OCCCc3nc(-c4ccccc4)no3)cc2)CCOCC1 [Example 241]

- IC50 (Human recombinant MMP-2; value outside parenthesis): 173 nM
- IC50 (Human recombinant MMP-13; value outside parenthesis): 1.7 nM
- IC50 (Human recombinant MMP-14; value outside parenthesis): > 10000 nM
- IC50 (Human recombinant MMP-9; value outside parenthesis): 1960 nM
- IC50 (Human recombinant MMP-1; value outside parenthesis): > 10000 nM
Structure (SMILES): Cc1cccc(-c2nnc(CCCOc3ccc(S(=O)(=O)C4(C(=O)NO)CCOCC4)cc3)o2)c1 [Example 258]

- IC50 (Human recombinant MMP-2; value outside parentheses): 45.2 nM
- IC50 (Human recombinant MMP-13; value outside parentheses): 0.1 nM
- IC50 (Human recombinant MMP-14; value outside parentheses): > 10000 nM
- IC50 (Human recombinant MMP-9; value outside parentheses): 2300 nM
- IC50 (Human recombinant MMP-1; value outside parentheses): > 10000 nM
Structure (SMILES): O=C(NO)C1(S(=O)(=O)c2ccc(OCCCc3cc(-c4ccc(F)cc4)cs3)cc2)CCOCC1 [Example 607]

- IC50 (Human recombinant MMP-2; value outside parentheses): 184 nM
- IC50 (Human recombinant MMP-13; value outside parentheses): 1.4 nM
- IC50 (Human recombinant MMP-14; value outside parentheses): > 10000 nM
- IC50 (Human recombinant MMP-9; value outside parentheses): 7710 nM
- IC50 (Human recombinant MMP-1; value outside parentheses): > 10000 nM
Structure (SMILES): COc1ccc(-c2nnc(CCCOc3ccc(S(=O)(=O)C4(C(=O)NO)CCOCC4)cc3)o2)cc1 [Example 501]

- IC50 (Human recombinant MMP-2; [1]): 30.3 nM
- IC50 (Human recombinant MMP-13; [1]): 1.4 nM
- IC50 (Human recombinant MMP-14; [1]): > 10000 nM
- IC50 (Human recombinant MMP-9; [1]): 449 nM
- IC50 (Human recombinant MMP-1; [1]): 8710 nM
Structure (SMILES): O=C(NO)C1(S(=O)(=O)c2ccc(OCCCc3nc4ccccc4o3)cc2)CCOCC1 [Example 37, 4-[[4-[3-(2-benzoxazolyl)propoxy]phenyl]sulfonyl]tetrahydro-N-hydroxy-2H-pyran-4-carboxamide]
